Experimental findings from patent US10245249B2, “Pharmaceutical compositions comprising nitroxyl donors” (Cardioxyl Pharmaceuticals, Inc., priority 2013, dated 2019) are described below.

The test can be described thus: HNO production determined via N2O quantification (GC headspace analysis). Format: physicochemical. The settings on record: PBS, 37° C., 90 minutes incubation. From the text: Nitrous oxide (N2O) is produced via the dimerization and dehydration of HNO, and is the most common marker for nitroxyl production (Fukuto et al., Chem. Res. Toxicol. 18:790-801 (2005)). […] Using either nitrous oxide gas or Angeli's salt (AS) as a standard, the relative amounts of N2O released from compounds of the disclosure was examined via gas chromatography (GC) headspace analysis.
A procedure for determining the relative amounts of N2O released from compounds of the disclosure is as follows. GC was performed on an Agilent gas chromatograph equipped with a split injector (10:1 splitting), microelectron capture detector, and a HP-MOLSIV 30 m×0.32 mm×25 μm molecular sieve capillary column. Helium was used as the carrier (4 mL/min) gas and nitrogen was used as the make-up (20 mL/min) gas. The injector oven and the detector oven were kept at 200° C. and 325° C., respectively. All nitrous oxide analyses were performed with the column oven held at a constant temperature of 200° C.
All gas injections were made using an automated headspace analyzer. Vial pressurization was 15 psi. The analyzer's sample oven, sampling valve, and transfer line were kept at 40° C., 45° C., and 50° C., respectively. The oven stabilization, vial pressurization, loop fill, loop equilibration, and sample injection times were 1.00 min., 0.20 min., 0.20 min., 0.05 min., and 1.00 min., respectively.
All determinations used a batch of nominal 20 mL headspace vials with volumes pre-measured for sample uniformity (actual vial volume varied by <2.0% relative standard deviation (n=6)). The average vial volume for the batch was determined from six randomly-selected vials by calculating the weight difference between the capped and sealed empty (i.e., air-filled) vial and the capped and sealed deionized water-filled vial using the known density of deionized water, then averaging. Blanks were prepared by sealing and capping two vials then purging each for 20 seconds with a gentle argon stream. Nitroxyl standards were prepared by sealing and capping four vials then purging each for 1 minute with a gentle stream, from a gas cylinder, of a 3000 ppm […].
CXL-1020 (N-hydroxy-2-methanesulfonylbenzene-1-sulfonamide) “standards” were prepared by, in duplicate, accurately weighing 10±0.5 mg of CXL-1020 and adding it to each 4 mL vial. Using an auto pipette, 1 mL of argon-purged anhydrous DMF (Sigma-Aldrich) was added to each 4 mL vial to form a CXL-1020 stock solution for each sample and the vials were capped and shaken and/or sonicated to insure complete dissolution upon visual observation. Using an auto pipette, 20 mL vials were charged with 5 mL of PBS (purged for at least 30 min. with argon prior to use), purged with argon for at least 20 sec., and sealed with a rubber septum. Using a 50 μL syringe, 50 μL of the CXL-1020 stock solution was injected into each 20 mL vial containing the PBS.
Samples were prepared as follows. In duplicate, 18±1 mg of each sample was accurately weighed into each 4 mL vial. Using an auto pipette, 1 mL of argon-purged anhydrous DMF was added to each 4 mL vial to form a sample stock solution for each sample and the vials were capped and shaken and/or sonicated to insure complete sample dissolution upon visual observation. Using an auto pipette, 20 mL vials were charged with 5 mL of PBS (purged for at least 30 min. with argon prior to use), purged with argon for at least 20 sec., and sealed with a rubber septum. The vials were equilibrated for at least 10 min. at 37° C. in a dry block heater. Thereafter, using a 50 μL syringe, 50 μL of a sample stock solution was injected into each 20 mL vial containing the PBS. The vials were then held at 37° C. in the dry block heater for a time period such that the sum of the time spent in the dry block heater plus the time spent in the automated headspace analyzer oven before sample injection equaled the desired incubation time. […]
In the case of `O=S(=O)(NO)c1coc2ccccc12` [Compound 6, N-Hydroxy-1-benzofuran-3-sulfonamide], the “Relative N2O Yield (90 minutes incubation)” value (“Relative N2O Yield” below) came to 85%.
Under `O=S(=O)(NO)c1ncccc1Br` [Compound 33, 3-Bromo-N-hydroxypyridine-2-sulfonamide] stands 85.5%; under `NS(=O)(=O)c1cc(S(=O)(=O)NO)cs1` [Compound 34, 4-N-Hydroxythiophene-2,4-disulfonamide], 100%; under `O=S(=O)(NO)c1ccc(-c2cc(C(F)(F)F)on2)s1` [Compound 36, N-Hydroxy-5-[5-(trifluoromethyl)-1,2-oxazol-3-yl]thiophene-2-sulfonamide], 51%.
With `O=S(=O)(NO)C1=C(Cl)NC2SC=CN12` (centres unmarked) [Compound 37, 6-Chloro-N-hydroxy-7H,7aH-imidazo[2,1-b][1,3]thiazole-5-sulfonamide], the “Relative N2O Yield” value is given as 51%.
For `O=S(=O)(NO)c1ccc(-c2ccno2)s1` [Compound 38, N-Hydroxy-5-(1,2-oxazol-5-yl)thiophene-2-sulfonamide] the value was 25%; for `O=S(=O)(NO)c1ccc(-c2cnco2)s1` [Compound 40, N-Hydroxy-5-(1,3-oxazol-5-yl)thiophene-2-sulfonamide], 50%.
For `Cc1cc(S(=O)(=O)NO)c(C)s1` [Compound 41, N-Hydroxy-2,5-dimethylthiophene-3-sulfonamide] the value was 13%.
For the molecule `COC(=O)c1cc(C)c(S(=O)(=O)NO)s1` [Compound 42, Methyl 5-(hydroxysulfamoyl)-4-methylthiophene-2-carboxylate], the “Relative N2O Yield” value is 91%.
Under `O=S(=O)(NO)c1ccc(S(=O)(=O)c2ccccc2)s1` [Compound 43, 5-(Benzenesulfonyl)-N-hydroxythiophene-2-sulfonamide] stands 82%; under `O=S(=O)(NO)c1ccc(-c2ccon2)s1` [Compound 44, N-Hydroxy-5-(1,2-oxazol-3-yl)thiophene-2-sulfonamide], 81%; under `O=S(=O)(NO)c1ccc(Br)s1` [Compound 45, 5-Bromo-N-hydroxythiophene-2-sulfonamide], 76%.
In the case of `O=S(=O)(NO)c1sc(Br)cc1Br` [Compound 46, 3,5-Dibromo-N-hydroxythiophene-2-sulfonamide], the “Relative N2O Yield” value stood at 95%.
Under `O=S(=O)(NO)c1sccc1Cl` [Compound 48, 3-Chloro-N-hydroxythiophene-2-sulfonamide] stands 82%; under `O=S(=O)(NO)c1c(Cl)ccc2nonc12` [Compound 50, 5-Chloro-N-hydroxy-2,1,3-benzoxadiazole-4-sulfonamide], 31%.
For `COc1ccc(S(=O)(=O)NO)cc1OC` [Compound 52, N-Hydroxy-3,4-dimethoxybenzene-1-sulfonamide] the value was 11%.
Under `Cc1cc(C)c(C)c(S(=O)(=O)NO)c1C` [Compound 53, N-Hydroxy-2,3,5,6-tetramethylbenzene-1-sulfonamide] stands 70%.
`O=S(=O)(NO)c1cc(C(F)(F)F)cc(C(F)(F)F)c1` [Compound 54, N-Hydroxy-3,5-bis(trifluoromethyl)benzene-1-sulfonamide]: the “Relative N2O Yield” value is on record as 2%.
For `COC(=O)c1ccc(Cl)c(S(=O)(=O)NO)c1` [Compound 55, Methyl 4-chloro-3-(hydroxysulfamoyl)benzoate] the value was 87%.
Under `O=C(c1ccc(Cl)c(S(=O)(=O)NO)c1)N1CCC(=NO)CC1` [Compound 58, 2-Chloro-N-hydroxy-5-[4-(hydroxyimino)piperidine-1-carbonyl]benzene-1-sulfonamide] stands 92%; under `COCCN(C)C(=O)c1ccc(Cl)c(S(=O)(=O)NO)c1` [Compound 59, 4-Chloro-3-(hydroxysulfamoyl)-N-(2-methoxyethyl)-N-methylbenzamide], 82%; under `O=C(O)c1cc(S(=O)(=O)NO)ccc1O` [Compound 60, 2-Hydroxy-5-(hydroxysulfamoyl)benzoic acid], 9%.
For `CN1CCOc2cc(S(=O)(=O)NO)ccc21` [Compound 61, N-Hydroxy-4-methyl-3,4-dihydro-2H-1,4-benzoxazine-7-sulfonamide] the value was 11%; for `O=S(=O)(NO)c1ccc(O)cc1Cl` [Compound 62, 2-Chloro-N,4-dihydroxybenzene-1-sulfonamide], 28%; for `CN(C)C(=O)c1cc(S(=O)(=O)NO)c(Cl)cc1O` [Compound 64, 4-Chloro-2-hydroxy-5-(hydroxysulfamoyl)-N,N-dimethylbenzamide], 36%.
With `CN1CCc2cc(Cl)c(S(=O)(=O)NO)cc21` [Compound 65, 5-Chloro-N-hydroxy-1-methyl-2,3-dihydro-1H-indole-6-sulfonamide], the “Relative N2O Yield” value turned out to be 71%.
For `O=S(=O)(NO)c1cc(O)ccc1Cl` [Compound 66, 2-Chloro-N,5-dihydroxybenzene-1-sulfonamide] the value was 80%.
Under `CN1CCc2cc(Br)c(S(=O)(=O)NO)cc21` [Compound 67, 5-Bromo-N-hydroxy-1-methyl-2,3-dihydro-1H-indole-6-sulfonamide] stands 59%.
For `COCc1ccc(Cl)c(S(=O)(=O)NO)c1` [Compound 68, 2-Chloro-N-hydroxy-5-(methoxymethyl)benzene-1-sulfonamide] the value was 86%.
Consider `COC(=O)c1ccc(S(=O)(=O)NO)o1` [Compound 69, Methyl 5-(hydroxysulfamoyl)furan-2-carboxylate], for which the “Relative N2O Yield” value came to 100%.
For `Cc1cc(S(=O)(=O)NO)c(C)o1` [Compound 70, N-Hydroxy-2,5-dimethylfuran-3-sulfonamide] the value was 6%.
Under `CCS(=O)(=O)c1ccccc1S(=O)(=O)NO` [Compound 72, 2-(Ethanesulfonyl)-N-hydroxybenzene-1-sulfonamide] stands 97%; under `CC(C)S(=O)(=O)c1ccccc1S(=O)(=O)NO` [Compound 73, N-Hydroxy-2-(propane-2-sulfonyl)benzene-1-sulfonamide], 97%; under `CC(=O)N1CCOc2ccc(S(=O)(=O)NO)cc21` [Compound 74, 4-Acetyl-N-hydroxy-3,4-dihydro-2H-1,4-benzoxazine-6-sulfonamide], 17%.
Turning to `COC(=O)c1ccc(S(=O)(=O)NO)n1C` [Compound 75, Methyl 5-(hydroxysulfamoyl)-1-methyl-1H-pyrrole-2-carboxylate], the “Relative N2O Yield” value was 4%.
For `CC(=O)Nc1ncc(S(=O)(=O)NO)s1` [Compound 76, N-[5-(Hydroxysulfamoyl)-1,3-thiazol-2-yl]acetamide] the value was 76%; for `Cc1oc(C)c(S(=O)(=O)NO)c1C(=O)N1CCOCC1` [Compound 77, N-Hydroxy-2,5-dimethyl-4-(morpholine-4-carbonyl)furan-3-sulfonamide], 14%.
Consider `CCOC(=O)c1coc(S(=O)(=O)NO)c1` [Compound 78, Ethyl 5-(hydroxysulfamoyl)furan-3-carboxylate], for which the “Relative N2O Yield” value is 86%.
